US5288709A, “Erythromycin derivatives” (priority 1991, dated 1994)
Values after ≈ are worked out from the molar mass of the structure shown. Like-named read-outs stand apart in the source and are kept apart here.

Legend:
[1] = tested on: Streptococcus pneumoniae (ATCC 6303); assay: In-vivo acute mouse protection assay; parameters: species or system Streptococcus pneumoniae; female Swiss albino mice; settings: dosed 1 and 5 h post-infection, observed 7 days
Protocol: (§1) An acute mouse protection test was conducted on ten mice with each of three concentrations of selected compounds of the invention. Each concentration was a four-fold dilution of the previous concentration. The initial concentration will vary with the microorganism with which the mouse is challenged.
(§2) The acute mouse protection test was conducted on female, Swiss albino mice, 18-20 grams in weight. […] To check the potency of the inoculum, a titration of the indicated test organism was carried out in control animals. The titration determines the LD50 for a particular microorganism. The treatment groups of animals were dosed orally, by gavage, or subcutaneously with the test compounds at 1 and 5 hours post-infection and observed for 7 days. The ED50 were calculated using the mortality data collected.

[2] = Pharmacokinetic evaluation in dogs after a 10 mg/kg dose; settings: dog, plasma; for half-life: t1/2 (biological half life); for bioavailability: % ABS (percent absorbance), from AUC (absolute bioavailability); for Cmax: Cmax (maximum concentration in blood); for Tmax: Tmax (time to achieve maximum concentration in blood)
Protocol: Selected compounds of the present invention were formulated as solutions in dilute lactobionic acid at a concentration of 10 or 20 mg/ml. Groups of two or three dogs were given a 10 mg macrolide/kg intravenous bolus or oral dose (by gavage). Plasma samples, obtained at selected time points from 15 minutes to 32 hours after dosing, were assayed using reverse phase HPLC with electrochemical detection (parent drug) and microbiological assay (total microbiological activity). Plasma concentration time curves were subjected to multi exponential curve fitting to determine terminal elimination half life values. Area under the curve (AUC) values, calculated by the trapezoidal method, were used to calculate absolute bioavailability.

[3] = tested on: Streptococcus agalactiae CMX 508; assay: In-vitro antimicrobial activity primary screen (agar dilution MIC); format: cell-based; settings: CMX508, BHI agar, 20-24 h, read-out: MIC
Method in brief: (§3)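 BHI agar dilution MIC, 35-37° C overnight (20-24 h), replicator inoculation at 1:100 or 1:10 for slow strains. Endpoint: no growth, slight haze or sparse colonies versus compound-free plate.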

Escherichia coli DC-2 = assay: as above; format: cell-based; settings: Escherichia coli DC-2, BHI agar, 20-24 h
Method in brief: as §3

[4] = tested on: Streptococcus pyrogenes 2548 INDUC; assay: as above; format: cell-based; settings: BHI agar, 20-24 h
Method in brief: as §3

Escherichia coli SS = assay: as above; format: cell-based; settings: BHI agar, 20-24 h
Method in brief: as §3

[5] = tested on: Pseudomonas aeruginosa A5007; assay: as above; format: cell-based; settings: Pseudomonas aeruginosa, A5007, 24 h
Method in brief: as §3

[6] = tested on: Providencia stuartii CMX 640; assay: as above; format: cell-based; settings: Providencia stuartii, CMX640, 24 h
Method in brief: as §3

Pseudomonas cepacia 2961 = assay: as above; format: cell-based; settings: BHI agar, 20-24 h
Method in brief: as §3

Escherichia coli H560 = assay: as above; format: cell-based; settings: Escherichia coli, H560, 24 h, Escherichia coli H560; BHI agar, 20-24 h
Method in brief: as §3

[7] = tested on: Streptococcus pyrogenes EES61; assay: as above; format: cell-based; settings: BHI agar, 20-24 h
Method in brief: as §3

[8] = tested on: Staphylococcus aureus 45 RAR2; assay: as above; format: cell-based; settings: Staphylococcus aureus, 45RAR2, 24 h, BHI agar, 20-24 h
Method in brief: as §3

[9] = tested on: Pseudomonas aeruginosa BMH10; assay: as above; format: cell-based; settings: Pseudomonas aeruginosa, BMH10, 24 h, BHI agar, 20-24 h
Method in brief: as §3

[10] = tested on: Pseudomonas aeruginosa K799/61; assay: as above; format: cell-based
Method in brief: as §3

[11] = tested on: Staphylococcus aureus ATCC 6538P; assay: as above; format: cell-based; settings: BHI agar, 20-24 h
Method in brief: as §3

[12] = tested on: Staphylococcus epidermidis 3519; assay: as above; format: cell-based; settings: BHI agar, 20-24 h
Method in brief: as §3

Staphylococcus aureus 45 = assay: as above; format: cell-based; settings: BHI agar, 20-24 h, read-out: MIC
Method in brief: as §3

[13] = tested on: Micrococcus luteus ATCC 4698; assay: as above; format: cell-based; settings: 20-24 h
Method in brief: as §3

Escherichia coli JUHL = assay: as above; format: cell-based; settings: Escherichia coli, 24 h, Escherichia coli JUHL; BHI agar, 20-24 h
Method in brief: as §3

[14] = tested on: Micrococcus luteus ATCC 9341; assay: as above; format: cell-based; settings: BHI agar, 20-24 h
Method in brief: as §3

[15] = tested on: Enterobacter aerogenes ATCC 13048; assay: as above; format: cell-based; settings: Klebsiella aerogenes, ATCC13048, 24 h
Method in brief: as §3

[16] = tested on: Enterococcus faecium ATCC 8043; assay: as above; format: cell-based
Method in brief: as §3

[17] = tested on: Staphylococcus aureus A5177; assay: as above; format: cell-based; settings: Staphylococcus aureus, A5177, 24 h, Staphylococcus aureus A5177; BHI agar, 20-24 h
Method in brief: as §3

[18] = tested on: Pseudomonas aeruginosa K799/WT; assay: as above; format: cell-based; settings: Pseudomonas aeruginosa, K799/WT, 24 h
Method in brief: as §3

[19] = tested on: Streptococcus pyogenes C-203; assay: In-vivo acute mouse protection assay; parameters: species or system Streptococcus pyogenes; female Swiss albino mice; settings: dosed 1 and 5 h post-infection, observed 7 days
Protocol: as §1, §2

[20] = tested on: Klebsiella pneumoniae ATCC 8045; assay: In-vitro antimicrobial activity primary screen (agar dilution MIC); format: cell-based; settings: Klebsiella pneumoniae, ATCC8045, 24 h
Method in brief: as §3

Acinetobacter SP CMX 669 = assay: as above; format: cell-based; settings: Acinetobacter SP CMX 669, BHI agar, 20-24 h
Method in brief: as §3

[21] = po, oral 10 mg/kg, HPLC (parent drug)
[22] = po, oral 10 mg/kg, microbiological assay
[23] = Burkholderia cepacia, 2961, 24 h
[24] = Staphylococcus aureus, ATCC6538P, 24 h

## CC[C@H]1OC(=O)[C@H](C)[C@@H](O[C@H]2C[C@@](C)(OC)[C@H](N)[C@H](C)O2)[C@H](C)[C@@H](O[C@@H]2O[C@H](C)C[C@H](N(C)C)[C@H]2O)[C@](C)(O)C[C@@H](C)[C@@H]2O[C@@]1(C)[C@@H](O)[C@H]2C [Example 13, (4"R,9S,11S) 4"-Amino-9-deoxo-4",12-dideoxy-9,12-epoxyerythromycin A]
[1]; ATCC6303, 168 h, oral, read-out: ED50
  ED50: 84.8 mg/kg
[1]; ATCC6303, sc, 168 h, subcutaneous
  ED50: 4 mg/kg
[2]; iv, IV 10 mg/kg, HPLC (parent drug)
  half-life: 9.9 h
[2]; iv, IV 10 mg/kg, microbiological assay
  half-life: 18.3 h
[2]; [21]
  bioavailability: 68%
  Cmax: 1600 ng/mL
  Tmax: 0.4 h
  half-life: 9.6 h
[2]; [22]
  bioavailability: 58%
  Cmax: 1700 ng/mL
  Tmax: 0.4 h
  half-life: 9.1 h
[3]
  MIC: 0.02 µg/mL (≈ 0.0279 µM)
Escherichia coli DC-2; Escherichia coli, DC2, 24 h
  MIC: 50 µg/mL (≈ 69.7 µM)
[4]; read-out: MIC
  MIC: 0.78 µg/mL (≈ 1.09 µM)
Escherichia coli SS; Escherichia coli, 24 h
  MIC: 0.2 µg/mL (≈ 0.279 µM)
[5]
  MIC: > 100 µg/mL
[6]
  MIC: > 100 µg/mL
Pseudomonas cepacia 2961; [23]
  MIC: > 100 µg/mL
Escherichia coli H560
  MIC: 12.5 µg/mL (≈ 17.4 µM)
[7]; read-out: MIC
  MIC: < 0.005 µg/mL
[8]
  MIC: 0.2 µg/mL (≈ 0.279 µM)
[9]
  MIC: 100 µg/mL (≈ 139 µM)
[10]; Pseudomonas aeruginosa, K799/61, 24 h, Pseudomonas aeruginosa K799/61, BHI agar, 20-24 h
  MIC: 1.56 µg/mL (≈ 2.18 µM)
[11]; [24]
  MIC: 0.2 µg/mL (≈ 0.279 µM)
[12]; read-out: MIC
  MIC: 0.2 µg/mL (≈ 0.279 µM)
Staphylococcus aureus 45
  MIC: 0.2 µg/mL (≈ 0.279 µM)
[13]; ATCC4698, BHI agar, read-out: MIC
  MIC: 0.05 µg/mL (≈ 0.0697 µM)
Escherichia coli JUHL
  MIC: 50 µg/mL (≈ 69.7 µM)
[14]; Micrococcus luteus, ATCC9341, 24 h
  MIC: 0.01 µg/mL (≈ 0.0139 µM)
[15]
  MIC: 100 µg/mL (≈ 139 µM)
[16]; ATCC8043, Enterococcus faecium ATCC 8043, BHI agar, 20-24 h, read-out: MIC
  MIC: 0.05 µg/mL (≈ 0.0697 µM)
[17]
  MIC: 0.78 µg/mL (≈ 1.09 µM)
[18]
  MIC: 100 µg/mL (≈ 139 µM)
[19]; C203, 168 h, oral
  ED50: 51.5 mg/kg
[19]; C203, sc, 168 h, subcutaneous
  ED50: 9.3 mg/kg

## CC[C@H]1OC(=O)[C@H](C)[C@@H](O[C@H]2C[C@@](C)(OC)[C@@H](O)[C@H](C)O2)[C@H](C)[C@@H](O[C@@H]2O[C@H](C)C[C@H](N(C)C)[C@H]2O)[C@](C)(O)C[C@@H](C)C(=O)[C@H](C)[C@@H](O)[C@]1(C)O [Std, Erythromycin A, reference compound]
[2]; [22]
  bioavailability: 72%
  Cmax: 2500 ng/mL
  Tmax: 0.3 h
Escherichia coli DC-2
  MIC: 25 microgram/mL
[4]
  MIC: 1.56 microgram/mL
[4]; Streptococcus, 2548INDUC, 24 h
  MIC: 3.1 µg/mL (≈ 4.22 µM)
Escherichia coli SS
  MIC: 0.39 microgram/mL
Escherichia coli SS; Escherichia coli, 24 h
  MIC: 0.2 µg/mL (≈ 0.273 µM)
[5]
  MIC: > 100 µg/mL
[6]
  MIC: > 100 µg/mL
Pseudomonas cepacia 2961
  MIC: 100 microgram/mL
Pseudomonas cepacia 2961; [23]
  MIC: > 100 µg/mL
Escherichia coli H560
  MIC: 25 µg/mL (≈ 34.1 µM)
[7]; Streptococcus, EES61, 24 h
  MIC: 0.02 µg/mL (≈ 0.0273 µM)
[20]
  MIC: 100 µg/mL (≈ 136 µM)
[10]; Pseudomonas aeruginosa K799/61, BHI agar, 20-24 h
  MIC: 1.56 microgram/mL
[10]; Pseudomonas aeruginosa, K799/61, 24 h
  MIC: 0.78 µg/mL (≈ 1.06 µM)
[11]
  MIC: 0.1 microgram/mL
[11]; [24]
  MIC: 0.2 µg/mL (≈ 0.273 µM)
[12]
  MIC: 0.1 microgram/mL
[12]; Staphylococcus epidermidis, 3519, 24 h
  MIC: 0.2 µg/mL (≈ 0.273 µM)
Acinetobacter SP CMX 669
  MIC: 3.1 microgram/mL
Acinetobacter SP CMX 669; Acinetobacter, SPCMX669, 24 h
  MIC: 6.2 µg/mL (≈ 8.45 µM)
[13]; BHI agar
  MIC: 0.2 microgram/mL
[13]; Micrococcus luteus, ATCC4698, 24 h, BHI agar
  MIC: 0.1 µg/mL (≈ 0.136 µM)
Escherichia coli JUHL
  MIC: 25 µg/mL (≈ 34.1 µM)
[14]
  MIC: 0.02 microgram/mL
[15]
  MIC: 100 µg/mL (≈ 136 µM)
[16]; Enterococcus faecium, ATCC8043, 24 h
  MIC: 0.05 µg/mL (≈ 0.0681 µM)
[18]
  MIC: 100 µg/mL (≈ 136 µM)
